Laboratory results from the supplement of paper PMC13380429.

Assays:
[1] = tested on: A549-ACE2 infected with SARS-CoV-2; assay: cell count relative to DMSO; higher = less toxic; conditions: 24 h
[2] = tested on: A549-ACE2 infected with SARS-CoV-2; assay: SARS-CoV-2 infection rate relative to DMSO; higher = more infection; conditions: 24 h
Vero E6 [3] = assay: relative viability EC50 (midpoint between 100% and the lowest measured viability); higher = less toxic; conditions: 72 h
Caco-2 [4] = assay: as above; conditions: 72 h
Calu-3 [5] = assay: as above; conditions: 72 h
Vero E6 [6] = assay: drug sensitivity score (DSS) for viability; higher = more toxic; extreme values may be limits of the assay; conditions: 72 h
Caco-2 [7] = assay: as above; conditions: 72 h
HepG2 [8] = assay: as above; conditions: 72 h
Calu-3 [9] = assay: as above; conditions: 72 h
U2OS [10] = assay: as above; conditions: 72 h
[11] = tested on: A549-ACE2 infected with SARS-CoV-2; assay: morphology score (similarity to uninfected cells); higher = more like uninfected cells; conditions: 24 h
A549-ACE2 [12] = assay: drug-induced phospholipidosis relative to tamoxifen; higher = more phospholipidosis
Vero E6 [13] = assay: cell viability relative to DMSO; higher = less toxic; conditions: 72 h
Caco-2 [14] = assay: as above; conditions: 72 h
HepG2 [15] = assay: as above; conditions: 72 h
Calu-3 [16] = assay: as above; conditions: 72 h
U2OS [17] = assay: as above; conditions: 72 h
A549-ACE2 [18] = assay: phospholipidosis EC50; higher = less potent phospholipidosis inducer; conditions: 24 h
HepG2 [19] = assay: relative viability EC50 (midpoint between 100% and the lowest measured viability); higher = less toxic; conditions: 72 h
U2OS [20] = assay: as above; conditions: 72 h

COc1cc(-c2cc(-c3cccc(O)c3)cnc2N)cc(OC)c1OC
Conditions	SARS-CoV-2 infection rate, [2] [%]	cell count, [1] [%]	cell viability, Caco-2 [14] [%]	cell viability, Calu-3 [16] [%]	cell viability, HepG2 [15] [%]	cell viability, U2OS [17] [%]	cell viability, Vero E6 [13] [%]	morphology score, [11]
1 nM	–	–	101	87.7	94.1	95.8	99.7	–
10 nM	–	–	103	93.6	94.6	93.7	103	–
100 nM	–	–	105	92.3	93.8	101	97.4	–
0.3 µM	101	100	–	–	–	–	–	0.01
1000 nM	–	–	101	87.6	98.4	91	106	–
3 µM	103	99	–	–	–	–	–	0.39
10 µM	93	105	–	–	–	–	–	0.31
10000 nM	–	–	79.4	84.6	74.8	64.5	99	–
30 µM	91	84	–	–	–	–	–	0.16

Conditions	drug sensitivity score	relative viability EC50
Caco-2 [4]	–	> 10 µM
Caco-2 [7]	0.6	–
Calu-3 [5]	–	> 10 µM
Calu-3 [9]	0	–
HepG2 [8]	1.2	–
U2OS [10]	3.1	–
Vero E6 [3]	–	> 10000 nM
Vero E6 [6]	0	–

drug-induced phospholipidosis [%], A549-ACE2 [12]
Conditions	0.3 µM	0.833333 µM	3.33333 µM	6.66667 µM	10 µM	30 µM
24 h	4	3.08	6.21	12	15.9	47.9
48 h	3.78	1.52	1.5	4.27	9.43	62.2
72 h	4.57	0.15	0.0757	1.61	5.86	65.7

COc1cc(COc2cc(N)c(Cl)cc2C(=O)CCC2CCN(CCNS(C)(=O)=O)CC2)cc(OC)c1
Conditions	SARS-CoV-2 infection rate, [2] [%]	cell count, [1] [%]	cell viability, Caco-2 [14] [%]	cell viability, Calu-3 [16] [%]	cell viability, HepG2 [15] [%]	cell viability, U2OS [17] [%]	cell viability, Vero E6 [13] [%]	morphology score, [11]
1 nM	–	–	107	99	95	98.8	96.8	–
10 nM	–	–	102	106	102	96.2	97.8	–
0.1 µM	106	97	–	–	–	–	–	-0.18
100 nM	–	–	95.9	94.6	98.8	100	93.3	–
0.3 µM	102	102	–	–	–	–	–	-0.13
1 µM	93	105	–	–	–	–	–	0.08
1000 nM	–	–	110	105	92.5	101	96.1	–
3 µM	69	118	–	–	–	–	–	0.56
10000 nM	–	–	88.3	98.6	73.1	58.7	29.4	–

Conditions	drug sensitivity score	phospholipidosis EC50 [µM]	relative viability EC50
A549-ACE2 [18]	–	10.8	–
Caco-2 [4]	–	–	> 10 µM
Caco-2 [7]	0	–	–
Calu-3 [5]	–	–	> 10 µM
Calu-3 [9]	0	–	–
HepG2 [8]	2.1	–	–
U2OS [10]	2	–	–
Vero E6 [3]	–	–	2740 nM
Vero E6 [6]	4.4	–	–

drug-induced phospholipidosis [%], A549-ACE2 [12]
Conditions	0.3 µM	0.833333 µM	3.33333 µM	6.66667 µM	10 µM	30 µM
24 h	7	-3.07	1.58	15.2	28.5	59.3
48 h	8.74	0.25	7.6	19.6	29.2	–
72 h	9.15	2.57	12.6	21.2	34.8	–

Cc1ccccc1N(C)C(=O)c1ccc([S+]([O-])c2nccs2)c([N+](=O)[O-])c1 (stereo not drawn)
Conditions	SARS-CoV-2 infection rate, [2] [%]	cell count, [1] [%]	cell viability, Caco-2 [14] [%]	cell viability, Calu-3 [16] [%]	cell viability, HepG2 [15] [%]	cell viability, U2OS [17] [%]	cell viability, Vero E6 [13] [%]	morphology score, [11]
1 nM	–	–	96.9	102	106	98.5	103	–
10 nM	–	–	103	97.6	102	99.5	98.2	–
0.1 µM	101	99	–	–	–	–	–	-0.04
100 nM	–	–	98.5	102	95.1	95.6	100	–
0.3 µM	105	104	–	–	–	–	–	0.06
1 µM	92	99	–	–	–	–	–	0.22
1000 nM	–	–	82.8	103	89.5	41.7	88.1	–
3 µM	74	74	–	–	–	–	–	0.22
10000 nM	–	–	0.2	2.3	0.2	0	0.1	–

Conditions	drug sensitivity score	relative viability EC50
Caco-2 [4]	–	1.86 µM
Caco-2 [7]	8.4	–
Calu-3 [5]	–	3.36 µM
Calu-3 [9]	5.2	–
HepG2 [8]	7.3	–
HepG2 [19]	–	2290 nM
U2OS [10]	12.5	–
U2OS [20]	–	805 nM
Vero E6 [3]	–	2190 nM
Vero E6 [6]	7.5	–

drug-induced phospholipidosis [%], A549-ACE2 [12]
Conditions	24 h	48 h	72 h
0.3 µM	6.61	5.74	-1.4
0.833333 µM	10.2	5.8	-1.83
